Experiment [1] concerns the target T1, FLK-1 receptor (Mus musculus, UniProt P35918).
T1 construct: expressed in transfected cells; host or cells: NIH3T3 C7#3 cells
As to the kind of experiment: FLK-1 ELISA (kinase activity of the FLK-1 receptor in cells engineered to express Flk-1). It is filed as cell-based. The conditions noted are these: NIH3T3 C7#3 cells (FLK-1 expressing), VEGF stimulated. Here is the method: An ELISA assay is conducted to measure the kinase activity of the FLK-1 receptor and more specifically, the inhibition or activation of TK activity on the FLK-1 receptor. Specifically, the following assay can be conducted to measure kinase activity of the FLK-1 receptor in cells genetically engineered to express Flk-1.
Materials. The following reagents and supplies are used: • a. Corning 96-well ELISA plates (Corning Catalog No. 25805-96); • b. Cappel goat anti-rabbit IgG (catalog no. 55641); • c. PBS (Gibco Catalog No. 450-1300EB); • d. TBSW Buffer (50 mM Tris (pH 7.2), 150 mM NaCl and 0.1% Tween-20); • e. Ethanolamine stock (10% ethanolamine (pH 7.0), stored at 4° C.); • f. HNTG buffer (20 mM HEPES buffer (pH 7.5), 150 mM NaCl, 0.2% Triton X-100, and 10% glycerol); • g. EDTA (0.5 M (pH 7.0) as a 100× stock); • h. Sodium orthovanadate (0.5 M as a 100× stock); • i. Sodium pyrophosphate (0.2 M as a 100× stock); • j. NUNC 96 well V bottom polypropylene plates (Applied Scientific Catalog No. AS-72092); • k. NIH3T3 C7#3 Cells (FLK-1 expressing cells); • l. DMEM with 1× high glucose L-Glutamine (catalog No. 11965-050); • m. FBS, Gibco (catalog no. 16000-028); • n. L-glutamine, Gibco (catalog no. 25030-016); • o. VEGF, PeproTech, Inc. (catalog no. 100-20)(kept as 1 μg/100 μL stock in Milli-Q dH2O and stored at −20° C.; • p. Affinity purified anti-FLK-1 antiserum; • q. UB40 monoclonal antibody specific for phosphotyrosine (see, Fendley, et al., 1990, Cancer Research50:1550-1558); • r. EIA grade Goat anti-mouse IgG-POD (BioRad catalog no. 172-1011); • s. 2,2-azino-bis(3-ethylbenz-thiazoline-6-sulfonic acid (ABTS) solution (100 mM citric acid (anhydrous), 250 mM Na2HPO4 (pH 4.0), 0.5 mg/mL ABTS (Sigma catalog no. A-1888)), solution should be stored in dark at 4° C. until ready for use; • t. H2O2 (30% solution) (Fisher catalog no. H325); • u. ABTS/H2O2 (15mL ABTS solution, 2 μL H2O2) prepared 5 minutes before use and left at room temperature; • v. 0.2 M HCl stock in H2O; • w. dimethylsulfoxide (100%)(Sigma Catalog No. D-8418); and • y. Trypsin-EDTA (Gibco BRL Catalog No. 25200-049).
Protocol. The following protocol can be used for conducting the assay:
1. Coat Corning 96-well ELISA plates with 1.0 μg per well Cappel Anti-rabbit IgG antibody in 0.1 M Na2CO3 pH 9.6. Bring final volume to 150 μL per well. Coat plates overnight at 4° C. Plates can be kept up to two weeks when stored at 4° C.
2. Grow cells in Growth media (DMEM, supplemented with 2.0 mM L-Glutamine, 10% FBS) in suitable culture dishes until confluent at 37° C., 5% CO2.
3. Harvest cells by trypsinization and seed in Corning 25850 polystyrene 96-well round bottom cell plates, 25.000 cells/well in 200 μL of growth media.
4. Grow cells at least one day at 37° C., 5% CO2.
5. Wash cells with D-PBS 1×.
6. […]
In general terms: In an ELISA, binding on a coated surface is turned into a signal by an enzyme label.

The target in experiment [2] is T2, human EGF-R (Homo sapiens, UniProt P00533).
T2 construct: expressed in transfected cells; host or cells: NIH 3T3/C7 cell line
T2 sequence (P00533 25-1210): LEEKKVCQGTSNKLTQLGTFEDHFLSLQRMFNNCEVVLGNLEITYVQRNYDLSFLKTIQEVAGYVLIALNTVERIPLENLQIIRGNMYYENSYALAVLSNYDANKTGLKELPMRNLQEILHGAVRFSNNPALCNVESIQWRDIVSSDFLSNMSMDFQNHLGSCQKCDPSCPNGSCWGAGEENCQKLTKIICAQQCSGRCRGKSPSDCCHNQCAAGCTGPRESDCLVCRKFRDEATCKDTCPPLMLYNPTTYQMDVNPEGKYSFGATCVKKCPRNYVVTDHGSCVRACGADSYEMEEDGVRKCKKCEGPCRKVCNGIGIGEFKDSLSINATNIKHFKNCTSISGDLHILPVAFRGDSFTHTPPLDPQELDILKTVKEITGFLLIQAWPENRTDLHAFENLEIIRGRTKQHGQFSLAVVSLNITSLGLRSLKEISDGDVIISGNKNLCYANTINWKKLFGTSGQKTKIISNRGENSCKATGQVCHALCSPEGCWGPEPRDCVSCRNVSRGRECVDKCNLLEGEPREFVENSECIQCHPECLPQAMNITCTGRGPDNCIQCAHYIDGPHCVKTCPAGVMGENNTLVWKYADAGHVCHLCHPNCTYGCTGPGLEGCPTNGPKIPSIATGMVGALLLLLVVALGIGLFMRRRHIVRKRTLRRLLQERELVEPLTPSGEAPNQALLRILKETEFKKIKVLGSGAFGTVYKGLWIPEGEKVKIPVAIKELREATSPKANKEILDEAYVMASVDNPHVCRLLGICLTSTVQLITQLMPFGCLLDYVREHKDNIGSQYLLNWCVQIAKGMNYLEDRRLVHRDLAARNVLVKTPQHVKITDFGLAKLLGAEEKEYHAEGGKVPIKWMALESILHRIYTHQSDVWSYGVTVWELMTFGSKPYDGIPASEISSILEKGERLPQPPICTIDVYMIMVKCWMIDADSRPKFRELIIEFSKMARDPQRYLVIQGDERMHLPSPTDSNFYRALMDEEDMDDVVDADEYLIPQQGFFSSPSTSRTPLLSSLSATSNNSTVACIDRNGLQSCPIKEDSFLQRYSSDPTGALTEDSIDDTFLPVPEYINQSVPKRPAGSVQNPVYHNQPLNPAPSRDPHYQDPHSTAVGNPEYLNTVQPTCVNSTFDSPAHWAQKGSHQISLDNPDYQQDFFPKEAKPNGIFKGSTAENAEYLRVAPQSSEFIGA
The experiment can be described thus: EGF Receptor ELISA (EGF receptor kinase activity in cells engineered to express human EGF-R). It counts as cell-based. Conditions: NIH 3T3/C7 cell line, EGF stimulated. How it is done:
EGF Receptor kinase activity in cells genetically engineered to express human EGF-R can be measured as described below:
Materiala and Reagents. The following materials and reagents are used
a. EGF Ligand: stock concentration=16.5 μM; EGF 201, TOYOBO, Co., Ltd. Japan.
b. 05-101 (UBI) (a monoclonal antibody recognizing an EGFR extracellular domain).
C. Anti-phosphotyosine antibody (anti-Ptyr) (polyclonal).
d. Detection antibody: Goat anti-rabbit lgG horse radish peroxidase conjugate, TAGO, Inc., Burlingame, Calif.
h. Stock reagents of: • EDTA 100 mM pR 7.0 • Na3VO4 0.5 M • Na4(P2O7) 0.2 M
Procedure. The following protocol is used:
1. Coat ELISA plates (Corning, 96 well, Cat. #25805-96) with 05-101 antibody at 0.5 μg per well in PBS, 150 μL final volume/well, and store overnight at 4° C. Coated plates are good for up to 10 days when stored at 4° C.
2. On day of use, remove coating buffer and replace with blocking buffer (5% Carnation Instant NonFat Dry Milk in PBS). Incubate the plate, shaking, at room temperature (about 23° C. to 25° C) for 30 minutes. Just prior to use, remove blocking buffer and wash plate 4 times with TBST buffer.
1. NIH 3T3/C7 cell line (Honegger, et al., Cell 51:199-209, 1987) can be use for this assay.
2. Choose dishes having 80-90% confluence for the experiment. Trypsinize cells and stop reaction by adding 10% CS DMEM medium. Suspend cells in DMEM medium (10% CS DMEM medium) and centrifuge once at 1000 rpm at room temperature for 5 minutes.
3. Resuspend cells in seeding medium (DMEM, 0.5% bovine serum), and count the cells using trypan blue. Viability above 90% is acceptable. Seed cells in DMEM medium (0.5% bovine serum) at a density of 10,000 cells per well, 100 μL per well, in a 96 well microtiter plate. Incubate seeded cells in 5% CO2 at 37° C. for about 40 hours.
1. Check seeded cells for contamination using an inverted microscope. Dilute drug stock (10 mg/mL in DMSO) 1:10 in DMEM medium, then transfer 5 μL to a test well for a final drug dilution of 1:200 and a final DMSO concentration of 1%. Control wells receive DMSO alone. Incubate in 5% CO2 at 37° C. for one hour.
2. Prepare EGF ligand: dilute stock EGF in DMEM so that upon transfer of 10 μL dilute EGF (1:12 dilution), 25 nM final concentration is attained.
3. Prepare fresh 10 mL HNTG* sufficient for 100 μL per well wherein HNTG* comprises: HNTG stock (2.0 mL), milli-Q H2O (7.3 mL), EDTA, 100 mM, pH 7.0 (0.5 mL), Na3VO4 0.5 M (0.1 mL) and Na4(P2O7), 0.2 M (0.1 mL).
5. After two hours incubation with drug, add prepared EGF ligand to cells, 10 μL per well, to yield a final concentration of 25 nM. Control wells receive DMEM alone. Incubate, shaking, at room temperature, for 5 minutes.
6. Remove drug, EGF, and DMEM. Wash cells twice with PBS. Transfer HNTG* to cells, 100 μL per well. Place on ice for 5 minutes. […]

Structures are written as SMILES.

As a reminder, the IC50 is the point on the concentration scale where inhibition reaches its midpoint. A lower IC50 goes with inhibition by little substance.

T1 sequence (P35918 20-1345): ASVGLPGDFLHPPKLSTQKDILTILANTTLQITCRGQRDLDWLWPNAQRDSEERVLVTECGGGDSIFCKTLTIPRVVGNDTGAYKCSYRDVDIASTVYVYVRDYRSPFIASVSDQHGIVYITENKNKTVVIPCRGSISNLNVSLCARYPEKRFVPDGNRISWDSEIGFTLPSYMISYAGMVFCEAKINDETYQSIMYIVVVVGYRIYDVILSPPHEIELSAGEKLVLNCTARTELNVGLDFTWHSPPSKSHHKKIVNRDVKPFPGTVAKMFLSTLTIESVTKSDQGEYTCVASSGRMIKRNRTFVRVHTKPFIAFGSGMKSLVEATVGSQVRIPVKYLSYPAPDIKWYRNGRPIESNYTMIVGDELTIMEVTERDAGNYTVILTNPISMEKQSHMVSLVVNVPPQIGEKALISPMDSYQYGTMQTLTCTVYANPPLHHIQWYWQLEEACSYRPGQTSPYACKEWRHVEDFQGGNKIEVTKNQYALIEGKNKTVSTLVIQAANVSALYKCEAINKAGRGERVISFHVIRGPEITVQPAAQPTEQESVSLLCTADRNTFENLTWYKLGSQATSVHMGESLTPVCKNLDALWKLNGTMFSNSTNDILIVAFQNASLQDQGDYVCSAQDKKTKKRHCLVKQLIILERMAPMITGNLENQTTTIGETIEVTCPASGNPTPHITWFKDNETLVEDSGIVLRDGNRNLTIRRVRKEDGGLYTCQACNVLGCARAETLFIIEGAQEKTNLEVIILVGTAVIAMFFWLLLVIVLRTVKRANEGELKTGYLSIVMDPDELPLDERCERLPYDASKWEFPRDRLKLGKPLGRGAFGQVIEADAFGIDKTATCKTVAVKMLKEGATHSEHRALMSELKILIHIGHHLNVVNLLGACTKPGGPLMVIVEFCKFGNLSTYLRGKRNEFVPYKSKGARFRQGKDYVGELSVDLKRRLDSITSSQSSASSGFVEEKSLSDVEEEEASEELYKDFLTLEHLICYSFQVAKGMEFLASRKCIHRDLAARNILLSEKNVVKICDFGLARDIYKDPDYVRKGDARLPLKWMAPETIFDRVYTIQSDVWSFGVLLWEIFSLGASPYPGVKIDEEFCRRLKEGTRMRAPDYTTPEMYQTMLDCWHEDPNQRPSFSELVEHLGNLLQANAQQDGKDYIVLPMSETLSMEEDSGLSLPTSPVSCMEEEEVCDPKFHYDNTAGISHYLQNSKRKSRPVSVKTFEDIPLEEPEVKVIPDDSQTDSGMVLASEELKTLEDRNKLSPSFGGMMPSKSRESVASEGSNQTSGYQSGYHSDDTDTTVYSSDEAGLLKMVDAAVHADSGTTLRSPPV

Turning to `O=C1Nc2ncccc2C1=Cc1cnc[nH]1` [3-(3H-imidazol-4-ylmethylene)-1,3-dihydro-pyrrolo[2,3-b]pyridin-2-one], the IC50 in experiment [1] is 17.6 µM; in experiment [2] it was > 50 µM.
The matching figures for `Cc1[nH]c(C=C2C(=O)Nc3ncccc32)c(C)c1CCC(=O)O` [3-[2,4-dimethyl-5-(2-oxo-1,2-dihydro-pyrrolo[2,3-b]pyridin-3-ylidenemethyl)-1H-pyrrol-3-yl]-propionic acid]: 0.15 µM and > 50 µM.
For `Cc1c(CCC(=O)O)c[nH]c1C=C1C(=O)Nc2ncccc21` [3-[4-methyl-5-(2-oxo-1,2-dihydro-pyrrolo[2,3-b]pyridin-3-ylidenemethyl)-1H-pyrrol-3-yl]-propionic acid] the same measures were 0.96 µM and > 25 µM.
For `Cc1cc(C)c(C=C2C(=O)Nc3ncccc32)[nH]1` [3-(3,5-dimethyl-1H-pyrrol-2-ylmethylene)-1,3-dihydro-pyrrolo[2,3-b]pyridin-2-one] the same measures were 2.06 µM and > 100 µM.

The record behind these values is patent US6849641B1, “Azaindole tyrosine kinase inhibitors” (Sugen, Inc., priority 1997, dated 2005).
